Results from PubChem BioAssay (NCI).
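Exposure lasted 48 hours, with cells grown in 96-well plates and compounds tested at five concentrations. GI50 marks 50% less growth. At the TGI there is no net growth.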

The molecules below were run on UACC-257 melanoma (assay: growth of human tumour cells (NCI), 48 h).
`C=CCNC(=S)/N=C/C(C(=O)Nc1ccccc1C)=C(\C)O` was tested, and the TGI was greater than 100 µM.

Each molecule was assayed on OVCAR-4 ovarian (assay: growth of human tumour cells (NCI), 48 h).
Work on `CCCCCCCCCCCCCCCC1(OC)C[N+](C)(C)CCO1` (configuration not stated) yielded a TGI of 5.96 µM.
Molecule `O=c1cc(N2CCCC2)[nH]c(=O)n1-c1ccc(Cl)cc1` has a TGI greater than 100 µM.
Work on `O=C(Nc1cccc(C(F)(F)F)c1)c1cc2ccccc2cc1O` yielded a GI50 of 2.04 µM and a TGI greater than 71.1 µM.
In the case of `CC/C(=C\c1ccc(OC)cc1)c1ccc(OC)cc1`, the TGI is reported as greater than 100 µM.
Work on `N#Cc1nc(/C=C/c2cccnc2)oc1N` yielded a TGI greater than 100 µM.
`C=CCNC(=S)/N=C/C(C(=O)Nc1ccccc1C)=C(\C)O` gave a TGI greater than 100 µM.

What follows are molecules tested on SF-539 CNS (assay: growth of human tumour cells (NCI), 48 h).
Molecule `CCCCCCCCCCCCCCCC1(OC)C[N+](C)(C)CCO1` (configuration not stated) has a TGI of 3.49 µM.
Molecule `O=c1cc(N2CCCC2)[nH]c(=O)n1-c1ccc(Cl)cc1` has a TGI greater than 100 µM.
`O=C(Nc1cccc(C(F)(F)F)c1)c1cc2ccccc2cc1O` gave a GI50 of 2.25 µM and a TGI of 70.2 µM.
In the case of `CC/C(=C\c1ccc(OC)cc1)c1ccc(OC)cc1`, the TGI is reported as greater than 100 µM.
`N#Cc1nc(/C=C/c2cccnc2)oc1N` showed a TGI greater than 100 µM.
`C=CCNC(=S)/N=C/C(C(=O)Nc1ccccc1C)=C(\C)O` showed a TGI greater than 100 µM.

These molecules were tested on RPMI-8226 leukemia (assay: growth of human tumour cells (NCI), 48 h).
`O=c1cc(N2CCCC2)[nH]c(=O)n1-c1ccc(Cl)cc1` showed a TGI greater than 100 µM.
Molecule `O=C(Nc1cccc(C(F)(F)F)c1)c1cc2ccccc2cc1O` has a GI50 of 0.354 µM and a TGI of 2.15 µM.
With `CC/C(=C\c1ccc(OC)cc1)c1ccc(OC)cc1` the TGI was greater than 100 µM.
`N#Cc1nc(/C=C/c2cccnc2)oc1N` was tested, and the TGI was greater than 100 µM.
In the case of `C=CCNC(=S)/N=C/C(C(=O)Nc1ccccc1C)=C(\C)O`, the TGI is reported as greater than 100 µM.

Each molecule was assayed on SW-620 colon (assay: growth of human tumour cells (NCI), 48 h).
Molecule `O=c1[nH]c2ccc(CC(=S)N3CCCCC3)cc2s1` has a TGI greater than 100 µM.
Molecule `CCCCCCCCCCCCCCCC1(OC)C[N+](C)(C)CCO1` (configuration not stated) has a TGI of 26.4 µM.
With `O=c1cc(N2CCCC2)[nH]c(=O)n1-c1ccc(Cl)cc1` the TGI was greater than 100 µM.
In the case of `O=C(Nc1cccc(C(F)(F)F)c1)c1cc2ccccc2cc1O`, the GI50 is reported as 2.51 µM and the TGI is reported as greater than 100 µM.
`CC/C(=C\c1ccc(OC)cc1)c1ccc(OC)cc1` was tested, and the TGI was greater than 100 µM.
`N#Cc1nc(/C=C/c2cccnc2)oc1N` gave a TGI greater than 100 µM.
`C=CCNC(=S)/N=C/C(C(=O)Nc1ccccc1C)=C(\C)O` gave a TGI greater than 100 µM.

The molecules below were run on CCRF-CEM leukemia (assay: growth of human tumour cells (NCI), 48 h).
For `O=c1cc(N2CCCC2)[nH]c(=O)n1-c1ccc(Cl)cc1`, the TGI was greater than 100 µM.
Molecule `O=C(Nc1cccc(C(F)(F)F)c1)c1cc2ccccc2cc1O` has a GI50 of 3.67 µM and a TGI greater than 100 µM.
For `CC/C(=C\c1ccc(OC)cc1)c1ccc(OC)cc1`, the TGI was greater than 100 µM.
`N#Cc1nc(/C=C/c2cccnc2)oc1N` gave a TGI greater than 100 µM.

The molecules below were run on 786-0 renal (assay: growth of human tumour cells (NCI), 48 h).
Molecule `O=c1[nH]c2ccc(CC(=S)N3CCCCC3)cc2s1` has a TGI greater than 100 µM.
Work on `CCCCCCCCCCCCCCCC1(OC)C[N+](C)(C)CCO1` (configuration not stated) yielded a TGI of 2.05 µM.
For `O=c1cc(N2CCCC2)[nH]c(=O)n1-c1ccc(Cl)cc1`, the TGI was greater than 100 µM.
With `O=C(Nc1cccc(C(F)(F)F)c1)c1cc2ccccc2cc1O` the GI50 was 2.08 µM and the TGI was 35.5 µM.
Work on `CC/C(=C\c1ccc(OC)cc1)c1ccc(OC)cc1` yielded a TGI greater than 100 µM.
`N#Cc1nc(/C=C/c2cccnc2)oc1N` showed a TGI greater than 100 µM.
`C=CCNC(=S)/N=C/C(C(=O)Nc1ccccc1C)=C(\C)O` showed a TGI greater than 100 µM.

Each molecule was assayed on MALME-3M melanoma (assay: growth of human tumour cells (NCI), 48 h).
`CCCCCCCCCCCCCCCC1(OC)C[N+](C)(C)CCO1` (configuration not stated) was tested, and the TGI was 4.7 µM.
With `O=c1cc(N2CCCC2)[nH]c(=O)n1-c1ccc(Cl)cc1` the TGI was greater than 100 µM.
For `O=C(Nc1cccc(C(F)(F)F)c1)c1cc2ccccc2cc1O`, the GI50 was 1.15 µM and the TGI was 6.74 µM.
Molecule `CC/C(=C\c1ccc(OC)cc1)c1ccc(OC)cc1` has a TGI greater than 100 µM.
`N#Cc1nc(/C=C/c2cccnc2)oc1N` was tested, and the TGI was greater than 100 µM.

Each molecule was assayed on MOLT-4 leukemia (assay: growth of human tumour cells (NCI), 48 h).
Molecule `O=c1[nH]c2ccc(CC(=S)N3CCCCC3)cc2s1` has a TGI greater than 100 µM.
`O=c1cc(N2CCCC2)[nH]c(=O)n1-c1ccc(Cl)cc1` was tested, and the TGI was greater than 100 µM.
`O=C(Nc1cccc(C(F)(F)F)c1)c1cc2ccccc2cc1O` showed a GI50 of 3.37 µM and a TGI greater than 35.6 µM.
`CC/C(=C\c1ccc(OC)cc1)c1ccc(OC)cc1` was tested, and the TGI was greater than 100 µM.
With `N#Cc1nc(/C=C/c2cccnc2)oc1N` the TGI was greater than 100 µM.
`C=CCNC(=S)/N=C/C(C(=O)Nc1ccccc1C)=C(\C)O` gave a TGI greater than 100 µM.

These molecules were tested on MDA-N (assay: growth of human tumour cells (NCI), 48 h).
With `O=c1[nH]c2ccc(CC(=S)N3CCCCC3)cc2s1` the TGI was greater than 100 µM.
With `CCCCCCCCCCCCCCCC1(OC)C[N+](C)(C)CCO1` (configuration not stated) the TGI was 4.99 µM.
In the case of `O=c1cc(N2CCCC2)[nH]c(=O)n1-c1ccc(Cl)cc1`, the TGI is reported as greater than 100 µM.
Molecule `CC/C(=C\c1ccc(OC)cc1)c1ccc(OC)cc1` has a TGI greater than 100 µM.
For `N#Cc1nc(/C=C/c2cccnc2)oc1N`, the TGI was greater than 100 µM.
`C=CCNC(=S)/N=C/C(C(=O)Nc1ccccc1C)=C(\C)O` gave a TGI greater than 100 µM.

Each molecule was assayed on SN12C renal (assay: growth of human tumour cells (NCI), 48 h).
Molecule `CCCCCCCCCCCCCCCC1(OC)C[N+](C)(C)CCO1` (configuration not stated) has a TGI of 3.94 µM.
`O=c1cc(N2CCCC2)[nH]c(=O)n1-c1ccc(Cl)cc1` showed a TGI greater than 100 µM.
`O=C(Nc1cccc(C(F)(F)F)c1)c1cc2ccccc2cc1O` gave a GI50 of 1.49 µM and a TGI greater than 100 µM.
Molecule `CC/C(=C\c1ccc(OC)cc1)c1ccc(OC)cc1` has a TGI greater than 100 µM.
Work on `N#Cc1nc(/C=C/c2cccnc2)oc1N` yielded a TGI greater than 100 µM.
In the case of `C=CCNC(=S)/N=C/C(C(=O)Nc1ccccc1C)=C(\C)O`, the TGI is reported as greater than 100 µM.

Each molecule was assayed on SF-295 CNS (assay: growth of human tumour cells (NCI), 48 h).
For `O=c1[nH]c2ccc(CC(=S)N3CCCCC3)cc2s1`, the TGI was greater than 100 µM.
`O=c1cc(N2CCCC2)[nH]c(=O)n1-c1ccc(Cl)cc1` was tested, and the TGI was greater than 100 µM.
With `O=C(Nc1cccc(C(F)(F)F)c1)c1cc2ccccc2cc1O` the GI50 was 2.86 µM and the TGI was 8.68 µM.
`CC/C(=C\c1ccc(OC)cc1)c1ccc(OC)cc1` showed a TGI greater than 100 µM.
`N#Cc1nc(/C=C/c2cccnc2)oc1N` gave a TGI greater than 100 µM.
For `C=CCNC(=S)/N=C/C(C(=O)Nc1ccccc1C)=C(\C)O`, the TGI was greater than 100 µM.

These molecules were tested on U251 CNS (assay: growth of human tumour cells (NCI), 48 h).
`O=c1cc(N2CCCC2)[nH]c(=O)n1-c1ccc(Cl)cc1` was tested, and the TGI was greater than 100 µM.
`O=C(Nc1cccc(C(F)(F)F)c1)c1cc2ccccc2cc1O` gave a GI50 of 1.23 µM and a TGI greater than 100 µM.
`CC/C(=C\c1ccc(OC)cc1)c1ccc(OC)cc1` gave a TGI greater than 100 µM.
In the case of `N#Cc1nc(/C=C/c2cccnc2)oc1N`, the TGI is reported as greater than 100 µM.
Work on `C=CCNC(=S)/N=C/C(C(=O)Nc1ccccc1C)=C(\C)O` yielded a TGI greater than 100 µM.

These molecules were tested on UO-31 renal (assay: growth of human tumour cells (NCI), 48 h).
Work on `O=C(Nc1cccc(C(F)(F)F)c1)c1cc2ccccc2cc1O` yielded a GI50 of 1.12 µM and a TGI greater than 22.1 µM.
`CC/C(=C\c1ccc(OC)cc1)c1ccc(OC)cc1` gave a TGI greater than 100 µM.
`N#Cc1nc(/C=C/c2cccnc2)oc1N` was tested, and the TGI was greater than 100 µM.
Work on `C=CCNC(=S)/N=C/C(C(=O)Nc1ccccc1C)=C(\C)O` yielded a TGI greater than 100 µM.

The molecules below were run on SK-MEL-5 melanoma (assay: growth of human tumour cells (NCI), 48 h).
Work on `O=C(Nc1cccc(C(F)(F)F)c1)c1cc2ccccc2cc1O` yielded a GI50 of 0.987 µM and a TGI of 3.5 µM.
Work on `CC/C(=C\c1ccc(OC)cc1)c1ccc(OC)cc1` yielded a TGI of 80.7 µM.
For `N#Cc1nc(/C=C/c2cccnc2)oc1N`, the TGI was greater than 100 µM.
Work on `C=CCNC(=S)/N=C/C(C(=O)Nc1ccccc1C)=C(\C)O` yielded a TGI greater than 100 µM.

The molecules below were run on HS 578T breast (assay: growth of human tumour cells (NCI), 48 h).
`CCCCCCCCCCCCCCCC1(OC)C[N+](C)(C)CCO1` (configuration not stated) showed a TGI of 7.22 µM.
`O=c1cc(N2CCCC2)[nH]c(=O)n1-c1ccc(Cl)cc1` gave a TGI greater than 100 µM.
For `O=C(Nc1cccc(C(F)(F)F)c1)c1cc2ccccc2cc1O`, the GI50 was 1.89 µM and the TGI was greater than 44 µM.
`CC/C(=C\c1ccc(OC)cc1)c1ccc(OC)cc1` showed a TGI greater than 100 µM.
For `N#Cc1nc(/C=C/c2cccnc2)oc1N`, the TGI was greater than 100 µM.
`C=CCNC(=S)/N=C/C(C(=O)Nc1ccccc1C)=C(\C)O` showed a TGI greater than 100 µM.

The molecules below were run on OVCAR-3 ovarian (assay: growth of human tumour cells (NCI), 48 h).
For `O=c1[nH]c2ccc(CC(=S)N3CCCCC3)cc2s1`, the TGI was greater than 100 µM.
In the case of `O=c1cc(N2CCCC2)[nH]c(=O)n1-c1ccc(Cl)cc1`, the TGI is reported as greater than 100 µM.
`O=C(Nc1cccc(C(F)(F)F)c1)c1cc2ccccc2cc1O` showed a GI50 of 0.783 µM and a TGI of 6.1 µM.
